Experimental data from US20060235076A1, “Medicinal composition for treating infection with drug-resistant staphylococcus aureus” (priority 2003, published 2006).
≈ marks a conversion by molar mass, not a printed value. Like-named read-outs stand apart in the source and are kept apart here.

Assays:
[1] = test system: MRSA COL and MRSA Strain No. 5; experiment: Potentiating effect of various gallates for antibacterial activity of oxacillin (MIC by broth microdilution method and FIC); format: cell-based, Staphylococcus aureus; conditions: for FIC value: combination with oxacillin
Method: According to the broth microdilution method defined by Japan Society of Chemotherapy, MIC was determined. CAMHA was prepared by adding 50 mg/l of Ca-ion, 25 mg/l of Mg-ion, and 2% of NaCl to MHB (Mueller-Hinton Broth), and it was used as a medium for use in the measurement of sensitivity. In 96-well microplates 100 μl of the medium for use in the measurement of sensitivity containing drugs was dispensed. The bacterial liquid was incubated at 37° C. overnight, diluted with saline and added to the plate so that the final concentration of the bacteria was 5×10^5 CFU/well. […] FIC (fractional inhibitory concentration) was calculated from the result and the potency of the effect of the combination use was evaluated.

[2] = test system: MRSA and MSSA; experiment: Antibacterial activity of gallic acid, various gallates and multivalent phenol derivatives alone (agar plate dilution method, MIC); format: cell-based, Staphylococcus aureus; conditions: Staphylococcus aureus
Method: According to the agar plate dilution method defined by Japan Society of Chemotherapy, MIC (Minimum inhibitory concentration) was determined. CAMHA was prepared by adding 50 mg/l of Ca-ion, 25 mg/l of Mg-ion, and 2% of NaCl to Mueller-Hinton II Agar (MHA), and it was used as a medium for use in the measurement of sensitivity. The bacterial liquid was incubated at 37° C. overnight and diluted to 10^6 CFU/ml with saline.
MIC for gallic acid, various gallates and multivalent phenol derivatives alone with MRSA and MSSA were determined as described in experiment 2.

**Q.** With CCCCCCCCCCCCOC(=O)c1cc(O)c(O)c(O)c1 [Lauryl gallate, n-lauryl gallate] as the compound, how does the FIC value ([1]; MRSA COL) read?
**A.** 0.531

**Q.** And the FIC value ([1]; MRSA Strain No. 5)?
**A.** 0.375

**Q.** What about the MIC ([2]; ATCC 6538 / MRSA / MSSA, ATCC6538, compound alone, read-out: MIC) of the same compound?
**A.** 62.5 µg/mL (≈ 185 µM)

**Q.** What about the MIC ([2]; COL, compound alone, read-out: MIC) of the same compound?
**A.** 31.3 µg/mL (≈ 92.5 µM)

**Q.** And the MIC ([2]; MRSA #1, compound alone, read-out: MIC)?
**A.** 62.5 µg/mL (≈ 185 µM)

**Q.** What about the MIC ([2]; MRSA #2, compound alone, read-out: MIC) of the same compound?
**A.** 62.5 µg/mL (≈ 185 µM)

**Q.** And the MIC ([2]; MRSA #3, compound alone, read-out: MIC)?
**A.** 62.5 µg/mL (≈ 185 µM)

**Q.** And the MIC ([2]; MRSA #4, compound alone, read-out: MIC)?
**A.** 62.5 µg/mL (≈ 185 µM)

**Q.** What about the MIC ([2]; MRSA #5, compound alone, read-out: MIC) of the same compound?
**A.** 62.5 µg/mL (≈ 185 µM)

**Q.** And the MIC ([2]; MRSA #6, compound alone, read-out: MIC)?
**A.** 31.3 µg/mL (≈ 92.5 µM)

**Q.** And the MIC ([2]; MRSA #7, compound alone, read-out: MIC)?
**A.** 31.3 µg/mL (≈ 92.5 µM)

**Q.** What about the MIC ([2]; MRSA #8, compound alone, read-out: MIC) of the same compound?
**A.** 31.3 µg/mL (≈ 92.5 µM)

**Q.** And the MIC ([2]; MRSA #9, compound alone, read-out: MIC)?
**A.** 31.3 µg/mL (≈ 92.5 µM)

**Q.** What about the MIC ([2]; MRSA #10, compound alone, read-out: MIC) of the same compound?
**A.** 15.6 µg/mL (≈ 46.1 µM)

**Q.** And the MIC ([2]; MRSA #12, compound alone, read-out: MIC)?
**A.** 62.5 µg/mL (≈ 185 µM)

**Q.** And the MIC ([2]; MRSA #16, compound alone, read-out: MIC)?
**A.** 62.5 µg/mL (≈ 185 µM)

**Q.** And the MIC ([2]; MRSA #17, compound alone, read-out: MIC)?
**A.** 62.5 µg/mL (≈ 185 µM)

**Q.** And the MIC ([2]; MRSA #18, compound alone, read-out: MIC)?
**A.** 62.5 µg/mL (≈ 185 µM)

**Q.** And the MIC ([2]; MRSA #20, compound alone, read-out: MIC)?
**A.** 62.5 µg/mL (≈ 185 µM)

**Q.** What about the MIC ([2]; MRSA #21, compound alone, read-out: MIC) of the same compound?
**A.** 62.5 µg/mL (≈ 185 µM)

**Q.** And the MIC ([2]; MRSA #22, compound alone, read-out: MIC)?
**A.** 62.5 µg/mL (≈ 185 µM)

**Q.** And the MIC ([2]; MRSA #24, compound alone, read-out: MIC)?
**A.** 62.5 µg/mL (≈ 185 µM)

**Q.** What about the MIC ([2]; MSSA #1003, compound alone, read-out: MIC) of the same compound?
**A.** 62.6 µg/mL (≈ 185 µM)

**Q.** And the MIC ([2]; MSSA #1010, compound alone, read-out: MIC)?
**A.** 62.5 µg/mL (≈ 185 µM)

**Q.** And the MIC ([2]; MSSA #1020, compound alone, read-out: MIC)?
**A.** 62.5 µg/mL (≈ 185 µM)

**Q.** And the MIC ([2]; MSSA #1023, compound alone, read-out: MIC)?
**A.** 62.5 µg/mL (≈ 185 µM)

**Q.** What about the MIC ([2]; MSSA #1029, compound alone, read-out: MIC) of the same compound?
**A.** 62.5 µg/mL (≈ 185 µM)

**Q.** And the MIC ([2]; MSSA #1032, compound alone, read-out: MIC)?
**A.** 62.5 µg/mL (≈ 185 µM)

**Q.** And the MIC50 ([2]; over all strains of Table 3-2, compound alone, read-out: MIC50)?
**A.** 62.5 µg/mL (≈ 185 µM)

**Q.** With CCCCCCCCCOC(=O)c1cc(O)c(O)c(O)c1 [Nonyl gallate, n-nonyl gallate] as the compound, how does the “antibacterial activity when used alone” value ([1]; COL Strain and Strain No. 5) read?
**A.** most potent

**Q.** What about the FIC value ([1]; MRSA COL) of the same compound?
**A.** 0.625

**Q.** What about the FIC value ([1]; MRSA Strain No. 5) of the same compound?
**A.** 0.502

**Q.** And the MIC50 [2]?
**A.** 15.7 µg/mL (≈ 53 µM)

**Q.** What about the MIC ([2]; ATCC 6538 / MRSA / MSSA, read-out: MIC alone) of the same compound?
**A.** 15.7 µg/mL (≈ 53 µM)

**Q.** What about the MIC ([2]; COL, read-out: MIC alone) of the same compound?
**A.** 15.7 µg/mL (≈ 53 µM)

**Q.** And the MIC ([2]; MRSA #1, read-out: MIC alone)?
**A.** 15.7 µg/mL (≈ 53 µM)

**Q.** What about the MIC ([2]; MRSA #2, read-out: MIC alone) of the same compound?
**A.** 15.7 µg/mL (≈ 53 µM)

**Q.** And the MIC ([2]; MRSA #3, read-out: MIC alone)?
**A.** 15.7 µg/mL (≈ 53 µM)

**Q.** And the MIC ([2]; MRSA #4, read-out: MIC alone)?
**A.** 15.7 µg/mL (≈ 53 µM)

**Q.** What about the MIC ([2]; MRSA #5, read-out: MIC alone) of the same compound?
**A.** 15.7 µg/mL (≈ 53 µM)

**Q.** And the MIC ([2]; MRSA #6, read-out: MIC alone)?
**A.** 15.7 µg/mL (≈ 53 µM)

**Q.** And the MIC ([2]; MRSA #7, read-out: MIC alone)?
**A.** 15.7 µg/mL (≈ 53 µM)

**Q.** What about the MIC ([2]; MRSA #8, read-out: MIC alone) of the same compound?
**A.** 15.7 µg/mL (≈ 53 µM)

**Q.** And the MIC ([2]; MRSA #9, read-out: MIC alone)?
**A.** 15.7 µg/mL (≈ 53 µM)

**Q.** And the MIC ([2]; MRSA #10, read-out: MIC alone)?
**A.** 15.7 µg/mL (≈ 53 µM)

**Q.** And the MIC ([2]; MRSA #12, read-out: MIC alone)?
**A.** 15.7 µg/mL (≈ 53 µM)

**Q.** What about the MIC ([2]; MRSA #16, read-out: MIC alone) of the same compound?
**A.** 15.7 µg/mL (≈ 53 µM)

**Q.** And the MIC ([2]; MRSA #17, read-out: MIC alone)?
**A.** 15.7 µg/mL (≈ 53 µM)

**Q.** What about the MIC ([2]; MRSA #18, read-out: MIC alone) of the same compound?
**A.** 15.7 µg/mL (≈ 53 µM)

**Q.** And the MIC ([2]; MRSA #20, read-out: MIC alone)?
**A.** 15.7 µg/mL (≈ 53 µM)

**Q.** And the MIC ([2]; MRSA #21, read-out: MIC alone)?
**A.** 15.7 µg/mL (≈ 53 µM)

**Q.** And the MIC ([2]; MRSA #22, read-out: MIC alone)?
**A.** 15.7 µg/mL (≈ 53 µM)

**Q.** What about the MIC ([2]; MRSA #24, read-out: MIC alone) of the same compound?
**A.** 15.7 µg/mL (≈ 53 µM)

**Q.** What about the MIC ([2]; MRSA and MSSR, read-out: MIC alone) of the same compound?
**A.** 15.7 µg/mL (≈ 53 µM)

**Q.** And the MIC ([2]; MSSA #1003, read-out: MIC alone)?
**A.** 15.7 µg/mL (≈ 53 µM)

**Q.** What about the MIC ([2]; MSSA #1010, read-out: MIC alone) of the same compound?
**A.** 15.7 µg/mL (≈ 53 µM)

**Q.** And the MIC ([2]; MSSA #1020, read-out: MIC alone)?
**A.** 15.7 µg/mL (≈ 53 µM)

**Q.** And the MIC ([2]; MSSA #1023, read-out: MIC alone)?
**A.** 15.7 µg/mL (≈ 53 µM)

**Q.** What about the MIC ([2]; MSSA #1029, read-out: MIC alone) of the same compound?
**A.** 15.7 µg/mL (≈ 53 µM)

**Q.** What about the MIC ([2]; MSSA #1032, read-out: MIC alone) of the same compound?
**A.** 15.7 µg/mL (≈ 53 µM)
